Experiment: Water gain (moisture uptake) of treated cotton swatches
Format: physicochemical
Settings: dried
Experimental: For table 2, the test method is as follows: For “no rinse”: 1×1 cm cotton swatches (triplicates) are placed into a weigh boat where each is labeled according to treatment type and number. Initial weights are recorded for each sample. 500 uL of polymer solution is applied to each cotton swatch sample then reweighed as wet weight. Samples are allowed to dry overnight at room temperature conditions. Sample weights are recorded in the following morning as “no rinse”. Samples are then placed on a tray in the incubator at 37° C., 3.3% CO2, and approximately 90% humidity (the metal tray at the bottom of the incubator has plenty of distilled water in the pan to ensure constant humidity). Opening and closing the incubator door frequently causes parameters to shift so minimizing this will ensure proper control over parameter. Samples are incubated for 8 hours then reweighed. The weights represent the moisture uptake ability for the treated samples. For “with rinse”: Following the weighing, samples are rinsed for 5 seconds in 500 g of vortexing water, and placed into respective weigh boat. Samples are dried overnight at room temperature conditions. Samples are weighed and placed in the incubator the following morning similar to above described procedure and weights are recorded as “with rinse”.

Water gain (No Rinse, incubated 8 hours at 37° C., approximately 90% humidity): 393.3 mg
Water gain (With Rinse, rinsed with water, incubated): 126.9 mg
SMILES: OCC(O)CO [40% glycerin, glycerin]

Reference: patent US20110104081A1, “Oral Compositions for Treatment of Dry Mouth” (priority 2009, published 2011)
